Assay results from PMC4982440, “PDK1-SGK1 Signaling Sustains AKT-Independent mTORC1 Activation and Confers Resistance to PI3Kα Inhibition” (Cancer Cell, 2016).

What was measured:
Type in all cases: biochemical
[1] = target: T1, S6K (Homo sapiens, UniProt P23443); assay: recombinant in vitro kinase assay
T1 construct: gene RPS6KB1; recombinant S6K

[2] = target: T2, SGK3 (Homo sapiens, UniProt Q96BR1); assay: in vitro kinase assay
T2 sequence (Q96BR1 1-496): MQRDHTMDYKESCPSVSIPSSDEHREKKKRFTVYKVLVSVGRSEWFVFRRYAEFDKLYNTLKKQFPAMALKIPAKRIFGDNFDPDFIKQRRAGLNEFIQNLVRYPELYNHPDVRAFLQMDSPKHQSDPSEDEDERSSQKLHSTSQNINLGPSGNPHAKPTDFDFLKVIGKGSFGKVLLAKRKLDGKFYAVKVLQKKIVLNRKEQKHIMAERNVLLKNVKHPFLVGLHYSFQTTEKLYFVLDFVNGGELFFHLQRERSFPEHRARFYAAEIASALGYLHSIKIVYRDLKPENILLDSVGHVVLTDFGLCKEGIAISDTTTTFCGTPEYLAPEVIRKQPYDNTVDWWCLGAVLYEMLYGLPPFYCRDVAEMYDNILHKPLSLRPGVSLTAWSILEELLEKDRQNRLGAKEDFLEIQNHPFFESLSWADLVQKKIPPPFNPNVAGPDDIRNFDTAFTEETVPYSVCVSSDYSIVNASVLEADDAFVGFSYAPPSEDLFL

[3] = target: T3, SGK2 (Homo sapiens, UniProt Q9HBY8); assay: in vitro kinase assay
T3 sequence (Q9HBY8 1-367): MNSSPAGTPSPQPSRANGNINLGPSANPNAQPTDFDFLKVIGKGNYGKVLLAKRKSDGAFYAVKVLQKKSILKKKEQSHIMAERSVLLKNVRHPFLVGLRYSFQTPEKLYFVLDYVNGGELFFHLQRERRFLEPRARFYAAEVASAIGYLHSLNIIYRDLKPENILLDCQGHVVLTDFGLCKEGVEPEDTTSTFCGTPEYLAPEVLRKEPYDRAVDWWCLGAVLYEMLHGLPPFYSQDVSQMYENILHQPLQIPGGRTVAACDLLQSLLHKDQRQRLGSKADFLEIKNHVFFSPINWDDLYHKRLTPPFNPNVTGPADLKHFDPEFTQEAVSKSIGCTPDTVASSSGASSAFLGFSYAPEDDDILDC

T1 sequence (P23443 whole entry): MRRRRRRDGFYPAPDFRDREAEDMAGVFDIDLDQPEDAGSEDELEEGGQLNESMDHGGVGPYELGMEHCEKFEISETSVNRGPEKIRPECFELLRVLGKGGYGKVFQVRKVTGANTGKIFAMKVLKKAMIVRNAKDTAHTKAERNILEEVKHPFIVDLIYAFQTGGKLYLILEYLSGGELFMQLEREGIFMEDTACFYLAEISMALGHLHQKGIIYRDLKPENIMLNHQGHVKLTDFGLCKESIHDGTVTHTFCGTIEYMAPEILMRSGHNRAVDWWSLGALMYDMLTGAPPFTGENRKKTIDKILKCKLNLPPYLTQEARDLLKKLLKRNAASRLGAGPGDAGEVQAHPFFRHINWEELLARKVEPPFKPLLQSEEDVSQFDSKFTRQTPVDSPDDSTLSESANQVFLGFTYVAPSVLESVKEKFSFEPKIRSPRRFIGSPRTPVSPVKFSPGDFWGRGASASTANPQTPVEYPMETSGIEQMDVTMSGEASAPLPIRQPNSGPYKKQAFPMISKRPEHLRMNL

Nc1n[nH]c2nc(-c3ccc(NS(=O)(=O)c4cccc(Cl)c4Cl)cc3)cnc12 [SGK1-inh]
IC50 [1]: 33 nM | IC50 [2]: 590 nM | IC50 [3]: 2.8 nM
